# Measured values: patent US20130317029A1 (PORTOLA PHARMACEUTICALS, INC., priority 2010, published 2013)
# Target: T1, full length active recombinant SYK enzyme (Homo sapiens, UniProt P43405)
# T1 construct: full length active recombinant SYK enzyme (Millipore, Calif.); purchased Millipore
# Assay: Inhibition of Syk tyrosine phosphorylation activity (LANCE TR-FRET kinase assay)
# Assay type: biochemical
# Procedure, shortened: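 Full-length active recombinant SYK (1 nM) phosphorylated biotinylated SYK-specific peptide (550 nM) with 100 μM ATP in 50 mM Tris pH 7.5, 5 mM MgCl2, 1 mM DTT, 3% DMSO, 1 h at room temperature. EDTA quench with Eu-anti-phosphotyrosine and SA-APC, 1 h TR-FRET read; IC50 by non-linear regression.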
row,IC50,Structure (SMILES)
1,1 to 10 nM,"COc1ccc(Nc2nc(N[C@H](CC(C)C)C(N)=O)[nH]c(=O)c2C(N)=O)cc1 [Example 89, (R)-2-(1-amino-4-methyl-1-oxopentan-2-ylamino)-4-(4-methoxyphenylamino)-6-oxo-1,6-dihydropyrimidine-5-carboxamide]"
2,1 to 10 nM,"CC[C@@H](Nc1nc(Nc2ccc(OC)cc2)c(C(N)=O)c(=O)[nH]1)C(N)=O [Example 90, (R)-2-(1-amino-1-oxobutan-2-ylamino)-4-(4-methoxyphenylamino)-6-oxo-1,6-dihydropyrimidine-5-carboxamide]"
3,1 to 10 nM,"CC(C)C[C@@H](Nc1nc(Nc2ccc(OC(F)(F)F)cc2)c(C(N)=O)c(=O)[nH]1)C(N)=O [Example 91, (R)-2-(1-amino-4-methyl-1-oxopentan-2-ylamino)-4-(4-(trifluoromethoxy)phenylamino)-6-oxo-1,6-dihydropyrimidine-5-carboxamide]"
4,1 to 10 nM,"CC[C@@H](Nc1nc(Nc2ccc(OC(F)(F)F)cc2)c(C(N)=O)c(=O)[nH]1)C(N)=O [Example 92, (R)-2-(1-amino-1-oxobutan-2-ylamino)-4-(4-(trifluoromethoxy)phenylamino)-6-oxo-1,6-dihydropyrimidine-5-carboxamide]"
5,1 to 10 nM,"COCCOc1ccc(Nc2nc(N[C@H](CC(C)C)C(N)=O)[nH]c(=O)c2C(N)=O)cc1 [Example 93, (R)-2-(1-amino-4-methyl-1-oxopentan-2-ylamino)-4-(4-(2-methoxyethoxy)phenylamino)-6-oxo-1,6-dihydropyrimidine-5-carboxamide]"
6,1 to 10 nM,"CC[C@@H](Nc1nc(Nc2ccc(OCCOC)cc2)c(C(N)=O)c(=O)[nH]1)C(N)=O [Example 94, (R)-2-(1-amino-1-oxobutan-2-ylamino)-4-(4-(2-methoxyethoxy)phenylamino)-6-oxo-1,6-dihydropyrimidine-5-carboxamide]"
7,1 to 10 nM,"NC(=O)c1c(Nc2cccc(-c3ccccn3)c2)nc(N[C@H](CC2CC2)C(N)=O)[nH]c1=O [Example 95, (R)-2-(1-amino-3-cyclopropyl-1-oxopropan-2-ylamino)-6-oxo-4-(3-(pyridin-2-yl)phenylamino)-1,6-dihydropyrimidine-5-carboxamide]"
8,1 to 10 nM,"CC(C)[C@@H](Nc1nc(Nc2cccc(-c3ccccn3)c2)c(C(N)=O)c(=O)[nH]1)C(N)=O [Example 96, (R)-2-(1-amino-3-methyl-1-oxobuan-2-ylamino)-6-oxo-4-(3-(pyridin-2-yl)phenylamino)-1,6-dihydropyrimidine-5-carboxamide]"
9,1 to 10 nM,"CC(C)C[C@@H](Nc1nc(Nc2cccc(-c3cccnc3)c2)c(C(N)=O)c(=O)[nH]1)C(N)=O [Example 97, (R)-2-(1-amino-4-methyl-1-oxopentan-2-ylamino)-6-oxo-4-(3-(pyridin-3-yl)phenylamino)-1,6-dihydropyrimidine-5-carboxamide]"
10,1 to 10 nM,"COCCOc1cccc(Nc2nc(N[C@H](CC(C)C)C(N)=O)[nH]c(=O)c2C(N)=O)c1 [Example 98, (R)-2-(1-amino-4-methyl-1-oxopentan-2-ylamino)-4-(3-(2-methoxyethoxy)phenylamino)-6-oxo-1,6-dihydropyrimidine-5-carboxamide]"
11,1 to 10 nM,"CC[C@@H](Nc1nc(Nc2cccc(OCCOC)c2)c(C(N)=O)c(=O)[nH]1)C(N)=O [Example 99, (R)-2-(1-amino-1-oxobutan-2-ylamino)-4-(3-(2-methoxyethoxy)phenylamino)-6-oxo-1,6-dihydropyrimidine-5-carboxamide]"
12,> 1000 nM,"CNC(=O)[C@@H](CC(C)C)Nc1nc(Nc2cccc(-c3ccccn3)c2)c(C(N)=O)c(=O)[nH]1 [Example 100, (R)-2-(4-methyl-1-(methylamino)-1-oxopentan-2-ylamino)-6-oxo-4-(3-(pyridin-2-yl)phenylamino)-1,6-dihydropyrimidine-5-carboxamide]"
13,1 to 10 nM,"CC(C)C[C@@H](Nc1nc(Nc2cccc(OC(F)(F)F)c2)c(C(N)=O)c(=O)[nH]1)C(N)=O [Example 101, (R)-2-(1-amino-4-methyl-1-oxopentan-2-ylamino)-4-(3-(trifluoromethoxy)phenylamino)-6-oxo-1,6-dihydropyrimidine-5-carboxamide]"
14,1 to 10 nM,"CC[C@@H](Nc1nc(Nc2cccc(OC(F)(F)F)c2)c(C(N)=O)c(=O)[nH]1)C(N)=O [Example 102, (R)-2-(1-amino-1-oxobutan-2-ylamino)-4-(3-(trifluoromethoxy)phenylamino)-6-oxo-1,6-dihydropyrimidine-5-carboxamide]"
15,10 to 100 nM,"CNC(=O)[C@@H](CC(C)C)Nc1nc(Nc2ccc3ncsc3c2)c(C(N)=O)c(=O)[nH]1 [Example 103, (R)-4-(benzo[d]thiazol-6-ylamino)-2-(4-methyl-1-(methylamino)-1-oxopentan-2-ylamino)-6-oxo-1,6-dihydropyrimidine-5-carboxamide]"
16,> 1000 nM,"CNC(=O)[C@@H](CC(C)C)Nc1nc(Nc2cccc(-n3cccn3)c2)c(C(N)=O)c(=O)[nH]1 [Example 104, (R)-4-(3-(1H-pyrazol-1-yl)phenylamino)-2-(4-methyl-1-(methylamino)-1-oxopentan-2-ylamino)-6-oxo-1,6-dihydropyrimidine-5-carboxamide]"
17,100 to 1000 nM,"CNC(=O)[C@@H](CC(C)C)Nc1nc(Nc2ccc3[nH]ncc3c2)c(C(N)=O)c(=O)[nH]1 [Example 105, (R)-4-(1H-indazol-5-ylamino)-2-(4-methyl-1-(methylamino)-1-oxopentan-2-ylamino)-6-oxo-1,6-dihydropyrimidine-5-carboxamide]"
18,1 to 10 nM,"CC(C)C[C@@H](Nc1nc(Nc2ccc(-c3cccnc3)cc2)c(C(N)=O)c(=O)[nH]1)C(N)=O [Example 106, (R)-2-(1-amino-4-methyl-1-oxopentan-2-ylamino)-6-oxo-4-(4-(pyridin-3-yl)phenylamino)-1,6-dihydropyrimidine-5-carboxamide]"
19,1 to 10 nM,"CC(C)C[C@@H](Nc1nc(Nc2ccc3cccnc3c2)c(C(N)=O)c(=O)[nH]1)C(N)=O [Example 107, (R)-2-(1-amino-4-methyl-1-oxopentan-2-ylamino)-6-oxo-4-(quinolin-7-ylamino)-1,6-dihydropyrimidine-5-carboxamide]"
20,< 1 nM,"CC(C)C[C@@H](Nc1nc(Nc2cnc3ccccc3c2)c(C(N)=O)c(=O)[nH]1)C(N)=O [Example 108, (R)-2-(1-amino-4-methyl-1-oxopentan-2-ylamino)-6-oxo-4-(quinolin-3-ylamino)-1,6-dihydropyrimidine-5-carboxamide]"
21,< 1 nM,"CC[C@@H](Nc1nc(Nc2cnc3ccccc3c2)c(C(N)=O)c(=O)[nH]1)C(N)=O [Example 109, (R)-2-(1-amino-1-oxobutan-2-ylamino)-6-oxo-4-(quinolin-3-ylamino)-1,6-dihydropyrimidine-5-carboxamide]"
22,1 to 10 nM,COc1ccc(Nc2nc(N[C@H](CC(C)C)C(N)=O)[nH]c(=O)c2C(N)=O)cn1 [Example 110]
23,1 to 10 nM,"CC(C)C[C@@H](Nc1nc(Nc2ccc(-c3ccncc3)cc2)c(C(N)=O)c(=O)[nH]1)C(N)=O [Example 111, (R)-2-(1-amino-4-methyl-1-oxopentan-2-ylamino)-6-oxo-4-(4-(pyridin-4-yl)phenylamino)-1,6-dihydropyrimidine-5-carboxamide]"
